In patent EP1064941A1, “Use of melatoninergic ligands for obtaining pharmaceutical compositions for the prevention or the treatment of gastrointestinal pathologies” (ADIR ET COMPAGNIE, priority 1999, dated 2001):

How the values were obtained:
Type in all cases: in vivo
[1] = system: complexes myoélectriques intestinaux; assay: Effects of melatoninergic ligands on intestinal myoelectric complexes in the rat (electrodes implanted on the intestinal wall); details: male Wistar rats
Description: Des rats mâles Wistar adultes placés en cycle lumière/obscurité 12h/12h sont implantés sous anesthésie d'électrodes sur la paroi de l'intestin afin d'enregistrer l'activité myoélectrique. Les rats ont un accès limité (30 min) à la nourriture pendant la période diurne.
Les composés de l'invention agonistes mélatoninergiques ou la mélatonine sont administrés par voie intraveineuse à la dose de 1 mg/kg, 10 min avant le repas. […] Ces complexes myoélectriques apparaissent tout d'abord sur le duodénum avec un délai de 50 min puis ils se propagent sur le jéjunum et l'iléon.

[2] = system: durée de la réponse postprandiale; assay: Effects of melatoninergic ligands on the duration of the postprandial response (irregular intestinal motor activity) in the rat; details: male Wistar rats, 30 min before access to food
Description: Chez le rat, la durée de la réponse postprandiale évaluée par l'activité motrice irrégulière intestinale, est plus courte en période d'obscurité que pendant la période diurne et ceci pour une même quantité d'aliments ingérés. Afin de confirmer que cette diminution de la durée pouvait être due à la sécrétion nocturne de mélatonine, le protocole suivant a été réalisé : des rats mâles Wistar adultes habitués à un cycle lumière/obscurité 12h/12h sont implantés sous anesthésie d'électrodes sur la paroi de l'intestin afin d'enregistrer l'activité myoélectrique. Les rats ont un accès limité (30 min) à la nourriture soit pendant la période nocturne soit pendant la période diurne. Les molécules de l'invention sont administrées 30 min avant l'accès à la nourriture. Le paramètre évalués dans ces études est la durée de l'activité irrégulière motrice. Les périodes de complexes myoélectriques ne sont pas prises en compte dans le cas d'induction par la molécule testée.

[3] = system: inflammation intestinale induite par l'indométhacine; assay: Indomethacin-induced intestinal inflammation model in the rat; details: male Wistar rats, 50 mg/kg ip ten minutes before each of two indomethacin doses (7,5 mg/kg sc, 24 h apart)
From the text: L'inflammation intestinale induite par administration d'indométhacine chez le rat est considérée comme un modèle animal physiopathologique présentant des modifications du comportement et de la motricité intestinale similaires à celles observées chez les patients atteints de la maladie de Crohn (Yamada T. et al, 1993, Mechanisms of acute and chronic intestinal inflammation induces by indomethacin, Inflammation, 17-6, 641-62; Gurbuz V. et al, 1999, Role of nitric oxide in indomethacin-induced gastric mucosal dysfunction in the rat, Experimental Physiology, 84, 319-332; Chen K. et al, 1999, Expression of NO II and its role in the experimental small bowel ulceration in rats, Surgery, 126, 553-561).
Des rats mâles Wistar adultes placés en cycle lumière/obscurité 12h/12h sont implantés sous anesthésie d'électrodes sur la paroi de l'intestin afin d'enregistrer l'activité myoélectrique. Les animaux sont divisés en plusieurs groupes.
Le groupe de rats témoins reçoit deux administrations d'indométhacine (7,5 mg/kg sc) espacées de 24 h. Les autres groupes de rats sont prétraités par la mélatonine ou un ligand mélatoninergique (50 mg/kg ip) dix minutes avant les deux administrations d'indométhacine.
Les animaux sont suivis sur le plan comportemental (prise alimentaire), physiologique (aspect du pelage, diarrhées) et motricité intestinale.

Compound	blocage de l'induction des complexes myoélectriques par l'agoniste ([1]; antagonist pretreatment 2 mg/kg subcutaneous, 30 min before the agonist)	durée de la réponse postprandiale nocturne ([2]; given 5 h after onset of darkness)	apparition de complexes myoélectriques pendant la réponse motrice postprandiale ([1]; 1 mg/kg intravenous, 10 min before the meal, daytime feeding (30 min access))	délai d'apparition des complexes myoélectriques sur le duodénum ([1]; 1 mg/kg intravenous, 10 min before the meal, complexes then propagate to jejunum and ileum) [min]	durée de la réponse postprandiale diurne ([2]; 100 µg/kg intravenous, given 4 h after onset of light)	symptômes de l'inflammation intestinale (diarrhées, perte de poils, prise alimentaire, motricité intestinale) [3]
CCc1ccc2scc(CCNC(C)=O)c2c1 [N-[2-(5-éthyl-1-benzothiophèn-3-yl)éthyl]acétamide]	empêche toute formation de complexe myoélectrique	entraîne un allongement de la réponse postprandiale qui devient d'une durée équivalente à la réponse observée le jour	–	–	–	–
COc1ccc2[nH]cc(CCNC(C)=O)c2c1 [mélatonine]	–	–	induisent l'apparition de complexes myoélectriques pendant la réponse motrice postprandiale	50	réduit la durée de la réponse postprandiale et la ramène à une durée de type nocturne	ne présentent plus de diarrhées, de perte de poils, de diminution de la prise alimentaire et de la motricité intestinale
